Data: ChEMBL document CHEMBL1201862, “PubChem BioAssay data set” (2004)
Where “and” joins values, the source holds several entries; their conditions need not be identical. Equal values may be shown once.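 Grown in 96-well plates, cells were treated for 48 hours with each compound at five concentrations. Insufficient inhibition: endpoint recorded as highest concentration tested. Abbreviation: GI50, concentration required for 50% inhibition of growth.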 Calls of active or inactive are those of the source. Rule as the data show it: active = GI50 up to about 1.1 µM and inactive = higher.

Columns and labels:
Assay in all cases: NCI anticancer screen, dose series, 48 h
[1] = tested on: DMS-273
[2] = tested on: SR
[3] = tested on: KM-20L2
[4] = tested on: MDA-MB-231
[5] = tested on: MDA-N
[6] = tested on: BT-549
[7] = tested on: XF498
[8] = tested on: RXF 631

Measured: GI50

CCNc1nnc(-c2nsc3ccccc23)s1
inactive: [1] 27.7 µM | [2] > 100 µM | [3] 55.3 µM

CN(C)c1ccc(/C=C2\C[C@H]3[C@@H]4CCc5cc(O)ccc5[C@H]4CC[C@]3(C)C2=O)cc1
inactive: [4] 16.5 µM | [2] > 100 µM | [5] > 100 µM

COc1cc2c3cc1Oc1c(OC)c(OC)cc4c1C(Cc1ccc(cc1)Oc1cc(ccc1O)CC3N(C)CC2)N(C)CC4 (stereo unspecified)
inactive: [4] 10.1 µM | [6] 10.1 µM | [2] 2.78 µM and 2.06 µM | [3] 10.4 µM | [5] 4.73 µM

Cc1c2cnccc2c(C)c2c1c1ccccc1n2CCCCCCCl
inactive: [1] > 39.8 µM | [7] 33 µM | [3] 25.1 µM

COc1cccc(NC(=O)CC(=O)NNCC(=O)Nc2nnc(-c3ccc(N(CCC#N)S(=O)(=O)c4ccccc4)cc3)s2)c1
inactive: [1] 72.1 µM | [7] 73.8 µM | [2] 28.8 µM | [3] > 100 µM | [8] > 100 µM

COc1ccc(/C(Cl)=C(\C=O)c2ccc(Cl)c(Cl)c2)cc1OC
inactive: [1] 6.73 µM | [7] 3.05 µM | [3] 6 µM | [8] 4.57 µM

CCc1cc(=O)n(/C(C)=C/c2ccccc2)n1C
inactive: [4] > 100 µM | [6] > 100 µM | [5] > 100 µM
